These are literature values, as cited in patent US6977083B1, “Bioadhesive tablet containing testosterone/testosterone ester mixtures and method for producing a predetermined testosterone time-release profile with same” (Jenapharm GmbH & Co. KG, priority 1998, dated 2005).

The conditions of the data set: after oral or parenteral administration.

As for `C[C@]12CC[C@H]3[C@@H](CCC4=CC(=O)CC[C@@]43C)[C@@H]1CC[C@@H]2O` [testosterone], the plasma half-life result was “about 10 minutes”.
